From US10336762B2 (priority 2017, dated 2019)
Like-named read-outs stand apart in the source and are kept apart here.

Experiments:
TNFα = assay: cells; assay type: cell-based, human; settings: LPS-stimulated human monocytes, read-out: EC50 TNF
IRAK4 enzyme = IRAK4 enzyme (Homo sapiens (Human), UniProt Q9NWZ3); assay: biochemical; assay type: biochemical; settings: IRAK4 enzyme, 500 μM ATP
[1] = Homo sapiens, Monocyte, TNFα content

Chain of IRAK4 enzyme (Q9NWZ3 whole entry): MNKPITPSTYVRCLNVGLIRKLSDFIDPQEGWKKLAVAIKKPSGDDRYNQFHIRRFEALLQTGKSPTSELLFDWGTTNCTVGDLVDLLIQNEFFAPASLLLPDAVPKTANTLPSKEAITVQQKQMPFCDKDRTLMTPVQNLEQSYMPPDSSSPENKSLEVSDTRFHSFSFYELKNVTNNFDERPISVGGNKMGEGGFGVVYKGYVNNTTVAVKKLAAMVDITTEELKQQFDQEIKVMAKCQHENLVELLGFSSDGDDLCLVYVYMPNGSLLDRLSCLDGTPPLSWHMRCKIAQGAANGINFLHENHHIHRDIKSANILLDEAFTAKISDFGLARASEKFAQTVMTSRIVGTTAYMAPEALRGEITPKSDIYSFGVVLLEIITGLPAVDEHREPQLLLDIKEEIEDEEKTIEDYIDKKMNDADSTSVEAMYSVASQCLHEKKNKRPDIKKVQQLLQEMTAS

Cn1ccc(Nc2cc(-c3ccc4cc(C#N)cnn34)ncc2C(=O)NC[C@@H](F)C(C)(C)O)n1 [Example 371, (R)-6-(3-cyanopyrrolo[1,2-b]pyridazin-7-yl)-N-(2-fluoro-3-hydroxy-3-methylbutyl)-4-((1-methyl-1H-pyrazol-3-yl)amino)nicotinamide]
EC50 (TNFα; [1]): 61 nM
IC50 (IRAK4 enzyme; TR-FRET): < 1 nM

CC(C)(O)[C@H](F)CNC(=O)c1cnc(-c2ccc3cc(C#N)cnn23)cc1N[C@H]1CC[C@H](c2cnco2)CC1 [Example 630, 6-(3-cyanopyrrolo[1,2-b]pyridazin-7-yl)-N-((R)-2-fluoro-3-hydroxy-3-methylbutyl)-4-(((1r,4R)-4-(oxazol-5-yl)cyclohexyl)amino)nicotinamide]
EC50 (TNFα; [1]): 9 nM
IC50 (IRAK4 enzyme; TR-FRET (HTRF)): < 1 nM

N#Cc1cnn2c(-c3cc(NC45CCC(O)(CC4)CC5)c(C(=O)NCCC4CCCO4)cn3)ccc2c1 (centres unmarked) [Example 346, 6-(3-cyanopyrrolo[1,2-b]pyridazin-7-yl)-4-((4-hydroxybicyclo[2.2.2]octan-1-yl)amino)-N-(2-(tetrahydrofuran-2-yl)ethyl)nicotinamide]
EC50 (TNFα; [1]): 18 nM
IC50 (IRAK4 enzyme; TR-FRET): 1 nM

CC(C)(O)[C@H](F)CNC(=O)c1cnc(-c2ccc3cc(C#N)cnn23)cc1Nc1ccc(OC2COC2)cc1 [Example 567, (R)-6-(3-cyanopyrrolo[1,2-b]pyridazin-7-yl)-N-(2-fluoro-3-hydroxy-3-methylbutyl)-4-((4-(oxetan-3-yloxy)phenyl)amino)nicotinamide]
EC50 (TNFα; [1]): 50 nM
IC50 (IRAK4 enzyme; TR-FRET (HTRF)): < 1 nM

Cn1ccc(Nc2cc(-c3ccc4cc(C#N)cnn34)ncc2C(=O)NC[C@@H](F)C(C)(C)O)cc1=O [Example 442, (R)-6-(3-cyanopyrrolo[1,2-b]pyridazin-7-yl)-N-(2-fluoro-3-hydroxy-3-methylbutyl)-4-((1-methyl-2-oxo-1,2-dihydropyridin-4-yl)amino)nicotinamide]
EC50 (TNFα; [1]): 104 nM
IC50 (IRAK4 enzyme; TR-FRET (HTRF)): 1 nM

N#Cc1cnn2c(-c3cc(NC45CCC(O)(CC4)CC5)c(C(=O)N[C@H]4CCNC4=O)cn3)ccc2c1 [Example 960, (S)-6-(3-cyanopyrrolo[1,2-b]pyridazin-7-yl)-4-((4-hydroxybicyclo[2.2.2]octan-1-yl)amino)-N-(2-oxo-pyrrolidin-3-yl)nicotinamide]
EC50 (TNFα; Homo sapiens, Monocyte, TNFα by TR-FRET): 316 nM
IC50 (IRAK4 enzyme; TR-FRET): 1 nM

COC(C)(C)[C@H](F)CNC(=O)c1cnc(-c2ccc3cc(C#N)cnn23)cc1NC12CCC(O)(CC1)CC2 [Example 354, (R)-6-(3-cyanopyrrolo[1,2-b]pyridazin-7-yl)-N-(2-fluoro-3-methoxy-3-methylbutyl)-4-((4-hydroxybicyclo[2.2.2]octan-1-yl)amino) nicotinamide]
EC50 (TNFα; [1]): 19 nM
IC50 (IRAK4 enzyme; TR-FRET): < 1 nM

CC(C)(O)[C@H](F)CNC(=O)c1cnc(-c2ccc3cc(C#N)cnn23)cc1Nc1cnn(C2CNCC2(F)F)c1 (single isomer, unassigned) [Example 868]
EC50 (TNFα; TNFα by TR-FRET): 53 nM
IC50 (IRAK4 enzyme; TR-FRET): < 1 nM

Cc1cc(Nc2cc(-c3ccc4cc(C#N)cnn34)ncc2C(=O)NC[C@@H](F)C(C)(C)O)ncc1C#N [Example 585, (R)-4-((5-cyano-4-methyl-pyridin-2-yl)amino)-6-(3-cyanopyrrolo[1,2-b]pyridazin-7-yl)-N-(2-fluoro-3-hydroxy-3-methyl-butyl)nicotinamide]
EC50 (TNFα; [1]): 104 nM
IC50 (IRAK4 enzyme; TR-FRET (HTRF)): 2 nM

CC(C)(O)[C@H](F)CNC(=O)c1cnc(-c2ccc3cc(C#N)cnn23)cc1Nc1ccc(-c2ccon2)cc1 [Example 773, (R)-6-(3-cyanopyrrolo[1,2-b]pyridazin-7-yl)-N-(2-fluoro-3-hydroxy-3-methylbutyl)-4-((4-(isoxazol-3-yl)phenyl)amino) nicotinamide]
EC50 (TNFα; [1]): 43 nM
IC50 (IRAK4 enzyme; TR-FRET (HTRF)): 1 nM

CCOC(=O)N[C@H]1CC[C@H](Nc2cc(-c3ccc4cc(C#N)cnn34)ncc2C(=O)NC[C@@H](F)C(C)(C)O)CC1 [Example 292, ethyl ((1R,4r)-4-((2-(3-cyanopyrrolo[1,2-b]pyridazin-7-yl)-5-(((R)-2-fluoro-3-hydroxy-3-methylbutyl)carbamoyl)pyridin-4-yl)amino)cyclohexyl)carbamate]
EC50 (TNFα; [1]): 37 nM
IC50 (IRAK4 enzyme; TR-FRET): 1 nM

CC(C)Nc1cc(-c2ccc3cc(C#N)cnn23)ncc1C(=O)NCCC(C)(N)C(F)F (centres unmarked) [Example 555, N-(3-amino-4,4-difluoro-3-methylbutyl)-6-(3-cyano-pyrrolo[1,2-b]pyridazin-7-yl)-4-(isopropylamino) nicotinamide]
EC50 (TNFα; [1]): 95 nM
IC50 (IRAK4 enzyme; TR-FRET (HTRF)): 1 nM

CC(=O)NC12CCC(Nc3cc(-c4ccc5cc(C#N)cnn45)ncc3C(=O)NC[C@@H](F)C(C)(C)O)(CC1)CC2 [Example 317, (R)-4-((4-acetamido-bicyclo[2.2.2]octan-1-yl)amino)-6-(3-cyano-pyrrolo[1,2-b]pyridazin-7-yl)-N-(2-fluoro-3-hydroxy-3-methylbutyl) nicotinamide]
EC50 (TNFα; [1]): 11 nM
IC50 (IRAK4 enzyme; TR-FRET): < 1 nM

CC(C)(F)[C@H](F)CNC(=O)c1cnc(-c2ccc3cc(C#N)cnn23)cc1NC12CCC(O)(CC1)CC2 [Example 353, (R)-6-(3-cyanopyrrolo[1,2-b]pyridazin-7-yl)-N-(2,3-difluoro-3-methylbutyl)-4-((4-hydroxybicyclo[2.2.2]octan-1-yl)amino) nicotinamide]
EC50 (TNFα; [1]): 16 nM
IC50 (IRAK4 enzyme; TR-FRET): < 1 nM

CC(C)(O)[C@H](F)CNC(=O)c1cnc(-c2ccc3cc(C#N)cnn23)cc1Nc1cnsc1 [Example 59, (R)-6-(3-cyanopyrrolo[1,2-b]pyridazin-7-yl)-N-(2-fluoro-3-hydroxy-3-methylbutyl)-4-(isothiazol-4-ylamino)nicotinamide]
EC50 (TNFα; [1]): 57 nM
IC50 (IRAK4 enzyme; TR-FRET): < 1 nM

CC(=O)N1CC(Nc2cc(-c3ccc4cc(C#N)cnn34)ncc2C(=O)NC[C@@H](F)C(C)(C)O)C1 [Example 449, (R)-4-((1-acetylazetidin-3-yl)amino)-6-(3-cyano-pyrrolo[1,2-b]pyridazin-7-yl)-N-(2-fluoro-3-hydroxy-3-methylbutyl)nicotinamide]
EC50 (TNFα; [1]): 361 nM
IC50 (IRAK4 enzyme; TR-FRET (HTRF)): 3 nM

N#Cc1cnn2c(-c3cc(NC45CCC(O)(CC4)CC5)c(C(=O)NC4CCC(NC(=O)C5CC5)CC4)cn3)ccc2c1 (centres unmarked) [Example 506, 6-(3-cyanopyrrolo[1,2-b]pyridazin-7-yl)-N-((1r,4r)-4-(cyclopropane-carboxamido)cyclohexyl)-4-((4-hydroxybicyclo[2.2.2]octan-1-yl)amino) nicotinamide]
EC50 (TNFα; [1]): 50 nM
IC50 (IRAK4 enzyme; TR-FRET (HTRF)): < 1 nM

CC(C)(C)OC(=O)N[C@H]1CC[C@H](Nc2cc(-c3ccc4cc(C#N)cnn34)ncc2C(=O)NC[C@@H](F)C(C)(C)O)CC1 [Example 305, tert-butyl ((1R,4r)-4-((2-(3-cyanopyrrolo[1,2-b]pyridazin-7-yl-5-(((R)-2-fluoro-3-hydroxy-3-methylbutyl)carbamoyl)pyridin-4-yl)amino)cyclohexyl) carbamate]
EC50 (TNFα; [1]): 337 nM
IC50 (IRAK4 enzyme; TR-FRET): 1 nM

CC(=O)N[C@@H]1CC[C@@H](Nc2cc(-c3ccc4cc(C#N)cnn34)ncc2C(=O)NC[C@@H](F)C(C)(C)O)C1 [Example 306, 4-(((1R,3R)-3-acetamidocyclopentyl)amino)-6-(3-cyano-pyrrolo[1,2-b]pyridazin-7-yl)-N-((R)-2-fluoro-3-hydroxy-3-methylbutyl) nicotinamide]
EC50 (TNFα; [1]): 453 nM
IC50 (IRAK4 enzyme; TR-FRET): 3 nM

COC(=O)[C@H](C)NC(=O)c1cnc(-c2ccc3cc(C#N)cnn23)cc1NC12CCC(O)(CC1)CC2 [Example 339, methyl (6-(3-cyano-pyrrolo[1,2-b]pyridazin-7-yl)-4-((4-hydroxy-bicyclo[2.2.2]octan-1-yl)amino)nicotinoyl)-L-alaninate]
EC50 (TNFα; [1]): 264 nM
IC50 (IRAK4 enzyme; TR-FRET): 1 nM

CC(C)(O)[C@H](F)CNC(=O)c1cnc(-c2ccc3cc(C#N)cnn23)cc1NC1CCC1 [Example 117, (R)-6-(3-cyanopyrrolo[1,2-b]pyridazin-7-yl)-4-(cyclobutyl-amino)-N-(2-fluoro-3-hydroxy-3-methylbutyl) nicotinamide]
EC50 (TNFα; [1]): 47 nM
IC50 (IRAK4 enzyme; TR-FRET): < 1 nM

COC(=O)NC1CC2(C1)CC(Nc1cc(-c3ccc4cc(C#N)cnn34)ncc1C(=O)NC[C@@H](F)C(C)(C)O)C2 (stereo partly drawn) [Example 754, (R)-methyl (6-((2-(3-cyanopyrrolo[1,2-b]pyridazin-7-yl)-5-((2-fluoro-3-hydroxy-3-methylbutyl)carbamoyl)pyridin-4-yl)amino)spiro[3.3]heptan-2-yl)carbamate]
EC50 (TNFα; [1]): 20 nM
IC50 (IRAK4 enzyme; TR-FRET (HTRF)): < 1 nM

CC(C)(O)[C@H](F)CNC(=O)c1cnc(-c2ccc3cc(C#N)cnn23)cc1NC12CCC(c3cnco3)(CC1)OC2 [Example 633, (R)-6-(3-cyanopyrrolo[1,2-b]pyridazin-7-yl)-N-(2-fluoro-3-hydroxy-3-methylbutyl)-4-((1-(oxazol-5-yl)-2-oxabicyclo[2.2.2]octan-4-yl)amino) nicotinamide]
EC50 (TNFα; [1]): 2 nM
IC50 (IRAK4 enzyme; TR-FRET (HTRF)): < 1 nM

CC(C)(O)[C@H](F)CNC(=O)c1cnc(-c2ccc3cc(C#N)cnn23)cc1Nc1ccc(-n2nccn2)cc1 [Example 774, (R)-4-((4-(2H-1,2,3-triazol-2-yl)phenyl)amino)-6-(3-cyanopyrrolo[1,2-b]pyridazin-7-yl)-N-(2-fluoro-3-hydroxy-3-methylbutyl)nicotinamide]
IC50 (IRAK4 enzyme; TR-FRET (HTRF)): 2 nM

CC(C)(O)[C@H](F)CNC(=O)c1cnc(-c2ccc3cc(C#N)cnn23)cc1Nc1cnc(-c2cn[nH]c2)nc1 [Example 969, (R)-4-((2-(1H-pyrazol-4-yl)pyrimidin-5-yl)amino)-6-(3-cyanopyrrolo[1,2-b]pyridazin-7-yl)-N-(2-fluoro-3-hydroxy-3-methyl-butyl)nicotinamide]
IC50 (IRAK4 enzyme; TR-FRET): < 1 nM

CC(C)Nc1cc(-c2ccc3cc(C#N)cnn23)ncc1C(=O)NC1(C)COC1 [Example 35, 6-(3-cyanopyrrolo[1,2-b]pyridazin-7-yl)-4-(isopropyl-amino)-N-(3-methyloxetan-3-yl) nicotinamide]
IC50 (IRAK4 enzyme; TR-FRET): 3 nM

6-(3-cyanopyrrolo[1,2- b]pyridazin-7-yl)-N-((R)- 2-fluoro-3-hydroxy-3- methylbutyl)-4-(((1s,3S)-3- hydroxyadamantan-1- yl)amino)nicotinamide [Example 525]
EC50 (TNFα; TNFα content): 11 nM
